Experimental data reported in US9096596B2 (Janssen Pharmaceutica NV, priority 2013, dated 2015).

Key:
Type in all cases: cell-based
[1] = target: T1, P2X7 (Homo sapiens (Human), UniProt Q99572); assay: Ca2+ flux (FLIPR) in 1321N1 cells expressing recombinant human P2X7 channel; details: 250 μM BzATP, Calcium-4 dye
Description: (§1) 1321N1 cells expressing the recombinant human, rat or mouse P2X7 channel was cultured in HyQ DME/(HyClone/Dulbecco's Modified Eagle Medium) high glucose supplemented with 10% Fetal Bovine Serum (FBS) and appropriate selection marker. Cells were seeded at a density of 25000 cells/well (96-well clear bottom black walled plates) in 100 μl volume/well. On the day of the experiment, cell plates were washed with assay buffer, containing (in mM): 130 NaCl, 2 KCl, 1 CaCl2, 1 MgCl2, 10 HEPES, 5 glucose; pH 7.40 and 300 mOs. After the wash, cells were loaded with the Calcium-4 dye (Molecular Device) and incubated in the dark for 60 minutes. Test compounds were prepared at 250× the test concentration in neat DMSO. Intermediate 96-well compound plates were prepared by transferring 1.2 μL of the compound into 300 μL of assay buffer. A further 3× dilution occurred when transferring 50 μL/well of the compound plate to 100 μL/well in the cell plate. Cells were incubated with test compounds and dye for 30 minutes. […] The fluorescence change was measured 180 seconds after adding the agonist.

[2] = target: rat P2X7 (Rattus norvegicus (Rat), UniProt Q64663); assay: Ca2+ flux (FLIPR) in 1321N1 cells expressing recombinant rat P2X7 channel; details: 250 μM BzATP, Calcium-4 dye
Description: as §1

[3] = target: T1, P2X7; assay: P2X7 antagonism in human PBMCs (IL-1β release, ELISA); details: test compound 10 μM, IL-1β release in human PBMCs, LPS 30 ng/ml + Bz-ATP 0.5 mM, read-out: PBMC 10 μM (% control)
Description: Human blood was collected using a blood donor program. […] Cells were incubated for an additional 1.5 hours. […] In Table 2, when the data cell has been left blank, it is intended to mean that the compound was not tested in that assay.

rat P2X7, sequence (Q64663 whole entry): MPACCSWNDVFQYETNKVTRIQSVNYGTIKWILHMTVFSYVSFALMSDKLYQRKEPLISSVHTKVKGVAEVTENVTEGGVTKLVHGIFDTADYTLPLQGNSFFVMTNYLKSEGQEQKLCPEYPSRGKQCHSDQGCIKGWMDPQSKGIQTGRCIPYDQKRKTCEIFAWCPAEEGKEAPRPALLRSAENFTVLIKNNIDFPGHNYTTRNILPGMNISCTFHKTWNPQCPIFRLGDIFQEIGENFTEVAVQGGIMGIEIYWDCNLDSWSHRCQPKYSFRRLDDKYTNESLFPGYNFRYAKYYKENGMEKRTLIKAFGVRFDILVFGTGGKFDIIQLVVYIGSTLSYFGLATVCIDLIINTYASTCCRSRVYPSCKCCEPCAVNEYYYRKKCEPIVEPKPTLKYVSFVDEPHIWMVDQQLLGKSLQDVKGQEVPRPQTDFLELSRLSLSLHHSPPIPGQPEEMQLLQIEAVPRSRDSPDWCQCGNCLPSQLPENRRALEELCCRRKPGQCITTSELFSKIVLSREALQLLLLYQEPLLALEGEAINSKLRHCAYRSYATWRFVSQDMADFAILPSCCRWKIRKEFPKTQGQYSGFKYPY
T1 sequence (Q99572 whole entry): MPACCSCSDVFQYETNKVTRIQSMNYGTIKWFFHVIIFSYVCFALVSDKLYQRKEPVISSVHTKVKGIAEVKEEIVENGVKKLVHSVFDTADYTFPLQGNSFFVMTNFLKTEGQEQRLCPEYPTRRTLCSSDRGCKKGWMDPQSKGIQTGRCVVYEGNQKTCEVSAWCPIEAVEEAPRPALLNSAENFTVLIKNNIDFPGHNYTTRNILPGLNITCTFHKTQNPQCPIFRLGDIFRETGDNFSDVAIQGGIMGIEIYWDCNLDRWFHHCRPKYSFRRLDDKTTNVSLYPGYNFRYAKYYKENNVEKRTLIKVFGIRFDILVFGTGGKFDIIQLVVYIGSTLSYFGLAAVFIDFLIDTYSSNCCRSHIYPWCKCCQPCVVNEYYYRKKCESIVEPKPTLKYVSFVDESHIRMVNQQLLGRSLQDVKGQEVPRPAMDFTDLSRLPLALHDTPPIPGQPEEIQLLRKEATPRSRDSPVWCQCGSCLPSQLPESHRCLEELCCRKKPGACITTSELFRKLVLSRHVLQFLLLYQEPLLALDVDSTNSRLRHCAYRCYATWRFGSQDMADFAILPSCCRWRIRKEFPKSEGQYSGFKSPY

| SMILES | IC50 [1] | IC50 [2] | remaining activity at 10 µM [3] |
| --- | --- | --- | --- |
| Cc1nc2c(c(-c3ccn[nH]3)n1)C[C@H](C)N(C(=O)c1cccc(C(F)(F)F)c1C)C2 (single isomer, unassigned) [Example 79, (S*)-(2,6-dimethyl-4-(1H-pyrazol-5-yl)-5,6-dihydropyrido[3,4-d]pyrimidin-7(8H)-yl)(2-methyl-3-(trifluoromethyl)phenyl)methanone] | 3240 nM |  |  |
| Cc1nc2c(c(-c3ccn[nH]3)n1)C[C@@H](C)N(C(=O)c1ccc(Cl)cc1F)C2 (single isomer, unassigned) [Example 88, (R*)-(4-chloro-2-fluorophenyl)(2,6-dimethyl-4-(1H-pyrazol-5-yl)-5,6-dihydropyrido[3,4-d]pyrimidin-7(8H)-yl)methanone] | 11000 nM |  |  |
| Cc1nc2c(c(-c3ccn[nH]3)n1)C[C@@H](C)N(C(=O)c1ccc(F)cc1F)C2 (single isomer, unassigned) [Example 94, (R*)-(2,4-difluorophenyl)(2,6-dimethyl-4-(1H-pyrazol-5-yl)-5,6-dihydropyrido[3,4-d]pyrimidin-7(8H)-yl)methanone] | > 10000 nM | > 10000 nM |  |
| COCCn1ccc(-c2nc(C)nc3c2C[C@H](C)N(C(=O)c2cccc(C(F)(F)F)c2Cl)C3)n1 (single isomer, unassigned) [Example 127, (S*)-(2-chloro-3-(trifluoromethyl)phenyl)(4-(1-(2-methoxyethyl)-1H-pyrazol-3-yl)-2,6-dimethyl-5,6-dihydropyrido[3,4-d]pyrimidin-7(8H)-yl)methanone] | > 10000 nM | > 10000 nM |  |
| Cc1nc2c(c(-c3ccn[nH]3)n1)CC(C)N(C(=O)c1ccc(C#N)cc1C)C2 (centres unmarked) [Example 3, 4-(2,6-dimethyl-4-(1H-pyrazol-5-yl)-5,6,7,8-tetrahydropyrido[3,4-d]pyrimidine-7-carbonyl)-3-methylbenzonitrile] | 798 nM | 4250 nM | 2.5% |
| O=C(c1cccc(Cl)c1Cl)N1CCc2c(ncnc2-c2cn[nH]c2)C1 [Example 4, 7-[(2,3-Dichlorophenyl)carbonyl]-4-(1H-pyrazol-4-yl)-5,6,7,8-tetrahydropyrido[3,4-d]pyrimidine] | 388 nM | 12500 nM |  |
| Cn1cc(-c2ncnc3c2CCN(C(=O)c2cccc(Cl)c2Cl)C3)cn1 [Example 5, 7-[(2,3-Dichlorophenyl)carbonyl]-4-(1-methyl-1H-pyrazol-4-yl)-5,6,7,8-tetrahydropyrido[3,4-d]pyrimidine] | 12800 nM | > 10000 nM |  |
| O=C(c1cc(F)c(F)cc1Cl)N1CCc2c(ncnc2-c2cnccn2)C1 [Example 16, 7-[(2-Chloro-4,5-difluorophenyl)carbonyl]-4-pyrazin-2-yl-5,6,7,8-tetrahydropyrido[3,4-d]pyrimidine] | 13200 nM | > 10000 nM | 20.4% |
| O=C(c1cccc(Cl)c1Cl)N1CCc2c(ncnc2-n2cccn2)C1 [Example 22, 7-[(2,3-Dichlorophenyl)carbonyl]-4-(1H-pyrazol-1-yl)-5,6,7,8-tetrahydropyrido[3,4-d]pyrimidine] | 198 nM | 28100 nM |  |
| Nc1nc2c(c(-c3ccccc3)n1)CCN(C(=O)c1cccc(Cl)c1Cl)C2 [Example 29, 7-[(2,3-Dichlorophenyl)carbonyl]-4-phenyl-5,6,7,8-tetrahydropyrido[3,4-d]pyrimidin-2-amine] | 796 nM |  |  |
| Cc1nc2c(c(-c3ccccc3)n1)CCN(C(=O)c1cccc(C(F)(F)F)c1Cl)C2 [Example 32, 7-{[2-Chloro-3-(trifluoromethyl)phenyl]carbonyl}-2-methyl-4-phenyl-5,6,7,8-tetrahydropyrido[3,4-d]pyrimidine] | 265 nM |  |  |
| Cc1nc2c(c(-c3ccn[nH]3)n1)CC(C)N(C(=O)c1cccc(C#N)c1C)C2 (centres unmarked) [Example 61, 3-(2,6-dimethyl-4-(1H-pyrazol-5-yl)-5,6,7,8-tetrahydropyrido[3,4-d]pyrimidine-7-carbonyl)-2-methylbenzonitrile] | 448 nM | 3110 nM | -1.2% |
| Cc1nc2c(c(-c3ccn[nH]3)n1)CC(C)N(C(=O)c1cccc(Cl)c1Cl)C2 (centres unmarked) [Example 67, (2,3-dichlorophenyl)(2,6-dimethyl-4-(1H-pyrazol-5-yl)-5,6-dihydropyrido[3,4-d]pyrimidin-7(8H)-yl)methanone] |  | 14.5 nM | -1.3% |
| Cc1nc2c(c(-c3ccnn3C)n1)CC(C)N(C(=O)c1cccc(C(F)(F)F)c1Cl)C2 (centres unmarked) [Example 73, (2-chloro-3-(trifluoromethyl)phenyl)(2,6-dimethyl-4-(1-methyl-1H-pyrazol-5-yl)-5,6-dihydropyrido[3,4-d]pyrimidin-7(8H)-yl)methanone] |  | 17.8 nM | 2.2% |
| CCc1nc2c(c(-c3ccn[nH]3)n1)CC(C)N(C(=O)c1ccc(Cl)c(F)c1Cl)C2 (centres unmarked) [Example 104, (2,4-dichloro-3-fluorophenyl)(2-ethyl-6-methyl-4-(1H-pyrazol-5-yl)-5,6-dihydropyrido[3,4-d]pyrimidin-7(8H)-yl)methanone] |  | 23.7 nM | -1.3% |
| O=C(c1cccc(C(F)(F)F)c1Cl)N1CCc2c(ncnc2-n2cncn2)C1 [Example 110, (4-(1H-1,2,4-triazol-1-yl)-5,6-dihydropyrido[3,4-d]pyrimidin-7(8H)-yl)(2-chloro-3-(trifluoromethyl)phenyl)methanone] | > 10000 nM | > 10000 nM | 20.1% |
| CC1c2ncnc(-c3ccn[nH]3)c2CCN1C(=O)c1cccc(C(F)(F)F)c1Cl (centres unmarked) [Example 112, (2-chloro-3-(trifluoromethyl)phenyl)(8-methyl-4-(1H-pyrazol-5-yl)-5,6-dihydropyrido[3,4-d]pyrimidin-7(8H)-yl)methanone] |  | 16 nM | -1.8% |
| CC1c2ncnc(-c3ccn[nH]3)c2CCN1C(=O)c1ccc(F)c(Cl)c1Cl (centres unmarked) [Example 118, (2,3-dichloro-4-fluorophenyl)(8-methyl-4-(1H-pyrazol-5-yl)-5,6-dihydropyrido[3,4-d]pyrimidin-7(8H)-yl)methanone] |  | 21 nM | -0.6% |
| Cc1ccc(C(=O)N2Cc3nc(C)nc(-c4ccn[nH]4)c3CC2C)c(C)c1 (centres unmarked) [Example 131, (2,6-dimethyl-4-(1H-pyrazol-5-yl)-5,6-dihydropyrido[3,4-d]pyrimidin-7(8H)-yl)(2,4-dimethylphenyl)methanone] | 11400 nM | > 10000 nM | 7.3% |
| Cc1nc2c(c(-c3ccn[nH]3)n1)CC(C)N(C(=O)c1cccc(C)c1C)C2 (centres unmarked) [Example 132, (2,6-dimethyl-4-(1H-pyrazol-5-yl)-5,6-dihydropyrido[3,4-d]pyrimidin-7(8H)-yl)(2,3-dimethylphenyl)methanone] | 532 nM | 7160 nM | -0.1% |
| Cc1nc2c(c(-c3ccn[nH]3)n1)CC(C)N(C(=O)c1ccc(F)cc1C)C2 (centres unmarked) [Example 133, (2,6-dimethyl-4-(1H-pyrazol-5-yl)-5,6-dihydropyrido[3,4-d]pyrimidin-7(8H)-yl)(4-fluoro-2-methylphenyl)methanone] | 918 nM |  | 0.1% |
| Cc1nc2c(c(-c3ccn[nH]3)n1)CC(C)N(C(=O)c1cccc(F)c1C)C2 (centres unmarked) [Example 134, (2,6-dimethyl-4-(1H-pyrazol-5-yl)-5,6-dihydropyrido[3,4-d]pyrimidin-7(8H)-yl)(3-fluoro-2-methylphenyl)methanone] | 331 nM | 1270 nM | 0.4% |
